In PubChem BioAssay (NCI):
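A five-concentration, 48-hour dose response in 96-well plates underlies each endpoint, interpolated linearly between surrounding concentrations. GI50 = concentration required for 50% inhibition of growth. TGI: concentration producing complete growth inhibition.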

Key:
Assay in all cases: NCI tumour cell line growth inhibition, 48 h
SR leukemia = test system: SR leukemia
ACHN renal = test system: ACHN renal
IGROV1 ovarian = test system: IGROV1 ovarian
MALME-3M melanoma = test system: MALME-3M melanoma
OVCAR-5 ovarian = test system: OVCAR-5 ovarian
MDA-MB-435 = test system: MDA-MB-435
NCI/ADR-RES ovarian = test system: NCI/ADR-RES ovarian
SW-620 colon = test system: SW-620 colon
SK-OV-3 ovarian = test system: SK-OV-3 ovarian
786-0 renal = test system: 786-0 renal
EKVX NSCLC = test system: EKVX NSCLC
OVCAR-4 ovarian = test system: OVCAR-4 ovarian
HOP-62 NSCLC = test system: HOP-62 NSCLC
SNB-19 CNS = test system: SNB-19 CNS
SK-MEL-28 melanoma = test system: SK-MEL-28 melanoma
RXF 393 renal = test system: RXF 393 renal
M14 melanoma = test system: M14 melanoma
MCF7 breast = test system: MCF7 breast
NCI-H522 lung = test system: NCI-H522 lung
MOLT-4 leukemia = test system: MOLT-4 leukemia
TK-10 renal = test system: TK-10 renal
SNB-75 CNS = test system: SNB-75 CNS
HOP-92 NSCLC = test system: HOP-92 NSCLC
HL-60(TB) leukemia = test system: HL-60(TB) leukemia
UO-31 renal = test system: UO-31 renal
HCT-116 colon = test system: HCT-116 colon
T-47D breast = test system: T-47D breast
BT-549 breast = test system: BT-549 breast
LOX IMVI melanoma = test system: LOX IMVI melanoma
DU-145 prostate = test system: DU-145 prostate
RPMI-8226 leukemia = test system: RPMI-8226 leukemia
K-562 leukemia = test system: K-562 leukemia
KM12 colon = test system: KM12 colon
HCC-2998 colon = test system: HCC-2998 colon
CCRF-CEM leukemia = test system: CCRF-CEM leukemia
OVCAR-3 ovarian = test system: OVCAR-3 ovarian
SK-MEL-5 melanoma = test system: SK-MEL-5 melanoma
SN12C renal = test system: SN12C renal
COLO 205 colon = test system: COLO 205 colon
OVCAR-8 ovarian = test system: OVCAR-8 ovarian
SK-MEL-2 melanoma = test system: SK-MEL-2 melanoma
PC-3 prostate = test system: PC-3 prostate
UACC-62 melanoma = test system: UACC-62 melanoma
SF-268 CNS = test system: SF-268 CNS
SF-539 CNS = test system: SF-539 CNS
SF-295 CNS = test system: SF-295 CNS
HS 578T breast = test system: HS 578T breast
NCI-H460 lung = test system: NCI-H460 lung
HCT-15 colon = test system: HCT-15 colon
A549 NSCLC = test system: A549 NSCLC
CAKI-1 renal = test system: CAKI-1 renal
HT29 colon = test system: HT29 colon
U251 CNS = test system: U251 CNS
A498 renal = test system: A498 renal
MDA-MB-231 breast = test system: MDA-MB-231 breast
UACC-257 melanoma = test system: UACC-257 melanoma

Compound: CN1CCN(c2nc(-c3csc(-c4ccccc4)n3)cc3ccccc23)CC1
- GI50 (SR leukemia): 1.58 µM
- TGI (SR leukemia): 3.97 µM
- GI50 (ACHN renal): 2.1 µM
- TGI (ACHN renal): 4.77 µM
- GI50 (IGROV1 ovarian): 1.88 µM
- TGI (IGROV1 ovarian): 4.55 µM
- GI50 (MALME-3M melanoma): 2 µM
- TGI (MALME-3M melanoma): 4.23 µM
- GI50 (OVCAR-5 ovarian): 3.23 µM
- TGI (OVCAR-5 ovarian): 12.8 µM
- GI50 (MDA-MB-435): 1.78 µM
- TGI (MDA-MB-435): 3.47 µM
- GI50 (NCI/ADR-RES ovarian): 1.93 µM
- TGI (NCI/ADR-RES ovarian): 4.25 µM
- GI50 (SW-620 colon): 1.63 µM
- TGI (SW-620 colon): 3.12 µM
- GI50 (SK-OV-3 ovarian): 12.3 µM
- TGI (SK-OV-3 ovarian): 28.2 µM
- GI50 (786-0 renal): 1.68 µM
- TGI (786-0 renal): 3.34 µM
- GI50 (EKVX NSCLC): 3.36 µM
- TGI (EKVX NSCLC): 13 µM
- GI50 (OVCAR-4 ovarian): 4.1 µM
- TGI (OVCAR-4 ovarian): 19.8 µM
- GI50 (HOP-62 NSCLC): 2.58 µM
- TGI (HOP-62 NSCLC): 10.6 µM
- GI50 (SNB-19 CNS): 5.52 µM
- TGI (SNB-19 CNS): 21.3 µM
- GI50 (SK-MEL-28 melanoma): 1.74 µM
- TGI (SK-MEL-28 melanoma): 3.28 µM
- GI50 (RXF 393 renal): 1.96 µM
- TGI (RXF 393 renal): 5.22 µM
- GI50 (M14 melanoma): 1.8 µM
- TGI (M14 melanoma): 3.55 µM
- GI50 (MCF7 breast): 1.65 µM
- TGI (MCF7 breast): 3.46 µM
- GI50 (NCI-H522 lung): 1.93 µM
- TGI (NCI-H522 lung): 4.44 µM
- GI50 (MOLT-4 leukemia): 2.02 µM
- TGI (MOLT-4 leukemia): 4.04 µM
- GI50 (TK-10 renal): 14.6 µM
- TGI (TK-10 renal): 28.9 µM
- GI50 (SNB-75 CNS): 5.97 µM
- TGI (SNB-75 CNS): 20.8 µM
- GI50 (HOP-92 NSCLC): 1.88 µM
- TGI (HOP-92 NSCLC): 7.63 µM
- GI50 (HL-60(TB) leukemia): 1.84 µM
- TGI (HL-60(TB) leukemia): 3.91 µM
- GI50 (UO-31 renal): 2.19 µM
- TGI (UO-31 renal): 8.18 µM
- GI50 (HCT-116 colon): 1.61 µM
- TGI (HCT-116 colon): 2.98 µM
- GI50 (T-47D breast): 2.07 µM
- TGI (T-47D breast): 5.53 µM
- GI50 (BT-549 breast): 13 µM
- TGI (BT-549 breast): 36.4 µM
- GI50 (LOX IMVI melanoma): 1.66 µM
- TGI (LOX IMVI melanoma): 3.09 µM
- GI50 (DU-145 prostate): 2.7 µM
- TGI (DU-145 prostate): 7.98 µM
- GI50 (RPMI-8226 leukemia): 2.09 µM
- TGI (RPMI-8226 leukemia): 5.37 µM
- GI50 (K-562 leukemia): 1.84 µM
- TGI (K-562 leukemia): 3.66 µM
- GI50 (KM12 colon): 1.95 µM
- TGI (KM12 colon): 3.99 µM
- GI50 (HCC-2998 colon): 1.66 µM
- TGI (HCC-2998 colon): 3.08 µM
- GI50 (CCRF-CEM leukemia): 1.96 µM
- TGI (CCRF-CEM leukemia): 4.34 µM
- GI50 (OVCAR-3 ovarian): 3.04 µM
- TGI (OVCAR-3 ovarian): 11.8 µM
- GI50 (SK-MEL-5 melanoma): 3.26 µM
- TGI (SK-MEL-5 melanoma): 12.1 µM
- GI50 (SN12C renal): 3.45 µM
- TGI (SN12C renal): 12.1 µM
- GI50 (COLO 205 colon): 1.68 µM
- TGI (COLO 205 colon): 3.19 µM
- GI50 (OVCAR-8 ovarian): 1.79 µM
- TGI (OVCAR-8 ovarian): 3.79 µM
- GI50 (SK-MEL-2 melanoma): 14.1 µM
- TGI (SK-MEL-2 melanoma): 29.2 µM
- GI50 (PC-3 prostate): 2.25 µM
- TGI (PC-3 prostate): 6.25 µM
- GI50 (UACC-62 melanoma): 1.93 µM
- TGI (UACC-62 melanoma): 3.88 µM
- GI50 (SF-268 CNS): 4.67 µM
- TGI (SF-268 CNS): 19.4 µM
- GI50 (SF-539 CNS): 1.79 µM
- TGI (SF-539 CNS): 3.45 µM
- GI50 (SF-295 CNS): 4.97 µM
- TGI (SF-295 CNS): 17.6 µM
- GI50 (HS 578T breast): 4.57 µM
- TGI (HS 578T breast): 27.1 µM
- GI50 (NCI-H460 lung): 1.73 µM
- TGI (NCI-H460 lung): 3.27 µM
- GI50 (HCT-15 colon): 1.85 µM
- TGI (HCT-15 colon): 3.66 µM
- GI50 (A549 NSCLC): 10.3 µM
- TGI (A549 NSCLC): 22.7 µM
- GI50 (CAKI-1 renal): 1.61 µM
- TGI (CAKI-1 renal): 3.52 µM
- GI50 (HT29 colon): 1.75 µM
- TGI (HT29 colon): 3.28 µM
- GI50 (U251 CNS): 2.34 µM
- TGI (U251 CNS): 6.22 µM
- GI50 (A498 renal): 14.8 µM
- TGI (A498 renal): 28.9 µM
- GI50 (MDA-MB-231 breast): 1.94 µM
- TGI (MDA-MB-231 breast): 4.38 µM
- GI50 (UACC-257 melanoma): 1.89 µM
- TGI (UACC-257 melanoma): 4.19 µM
